From patent US12173309B2, “Compounds for increasing genome editing efficiency” (Max-Planck-Gesellschaft zur Förderung der Wissenschaften …, priority 2017, dated 2024)

Tests used:
Assay type in all cases: cell-based, human
409-B2 hiPSCs = assay: PGE efficiency with recombinant Cpf1 ribonucleoprotein electroporation
Text: The recombinant A.s. Cpf1 and S.p. Cas9 protein and electroporation enhancer was ordered from IDT (Coralville, USA) and nucleofection was done using the manufacturer's protocol, except for the following alterations. […] Cells were counted using the Countess Automated Cell Counter (Invitrogen). […]
CRISPresso (Pinello et al. 2016) was used to analyse sequencing data from CRISPR genome editing experiments for percentage of wildtype, targeted nucleotide substitutions (TNS), indels and mix of TNS and indels. […] Sequencing data from colonies after single cell seeding (FIGS. 3B and C) was further analyzed by evaluating the actual read sequences using SAMtools. Clonal colonies were differentiated from mixed colonies using sequence read proportions. Colonies were counted as clones if the clear majority of reads consisted of a single sequence (homozygous) or of two sequences of similar read count (heterozygous). […]

CD34^+ progenitor cells = assay: PGE of HPRT with Cpf1 electroporation in non-pluripotent cells; conditions: primary cells
Method: (§1) Cells were grown at 37° C. in a humidified incubator gassed with 5% CO2. Media was replaced every day for stem cells and every second day for non-pluripotent cell lines. Cell cultures were maintained 4-6 days until ˜80% confluency, and subcultured at a 1:6 to 1:10 dilution.
(§2) The recombinant A.s. Cpf1 and S.p. Cas9 protein and electroporation enhancer was ordered from IDT (Coralville, USA) and nucleofection was done using the manufacturer's protocol, except for the following alterations. […] For multiplexing, only gRNAs and single stranded DNA donors were electroporated, since a Cas9n expressing iCRISPR-Cas9n hiPSC line was used. Cells were counted using the Countess Automated Cell Counter (Invitrogen).
(§3) Three days after lipofection cells were dissociated using Accutase (SIGMA, A6964), pelleted, and resuspended in 15 μl QuickExtract (Epicentre, QE0905T). Incubation at 65° C. for 10 min, 68° C. for 5 min and finally 98° C. for 5 min was performed to yield ssDNA as a PCR template. Primers for each targeted loci of CALD1, KATNA1 and SLITRK1 containing adapters for Illumina sequencing were ordered from IDT (Coralville, USA). PCR was done in a T100 Thermal Cycler (Bio-Rad) using the KAPA2G Robust PCR Kit (Peqlab, 07-KK5532-03) with supplied buffer B and 3 μl of cell extract in a total volume of 25 μl. The thermal cycling profile of the PCR was: 95° C.

CD4^+ T cells = assay: as above; conditions: primary cells
Method: as §1, §2, §3

Compound | PGE increase (409-B2 hiPSCs; DMNT1) [fold] | PGE increase (409-B2 hiPSCs; HPRT) [fold] | effect on PGE efficiency (CD34^+ progenitor cells) | effect on PGE efficiency (CD4^+ T cells)
O=c1cc(N2CCOCC2)oc2c1ccc1ccccc12 [NU7026] | 2.4 | 2.1 | – | –
NS(=O)(=O)OC[C@@H]1C[C@@H](n2ccc3c(N[C@H]4CCc5ccccc54)ncnc32)C[C@@H]1O [MLN4924, Pevonedistat] | – | – | disruptive effect | disruptive effect
